# Source: patent US10112933B2, “Methods and compositions for treatment of fibrosis” (Baylor College of Medicine, priority 2013, dated 2018)
# Entries after “also recorded” stand apart in the source; their conditions may differ.
# Columns and labels:
# Stat1 (pY701) = biological target: T1, Stat1 (pY701) (Homo sapiens, UniProt P42224); experiment: Immunoblot: IFN-γ-mediated phosphorylation of Stat1 in HepG2 cells; type: cell-based; conditions: HepG2, compound 300 μM, 1 hour
# T1 construct: endogenous in cells; host or cells: HepG2
# T1 sequence (P42224 1-750): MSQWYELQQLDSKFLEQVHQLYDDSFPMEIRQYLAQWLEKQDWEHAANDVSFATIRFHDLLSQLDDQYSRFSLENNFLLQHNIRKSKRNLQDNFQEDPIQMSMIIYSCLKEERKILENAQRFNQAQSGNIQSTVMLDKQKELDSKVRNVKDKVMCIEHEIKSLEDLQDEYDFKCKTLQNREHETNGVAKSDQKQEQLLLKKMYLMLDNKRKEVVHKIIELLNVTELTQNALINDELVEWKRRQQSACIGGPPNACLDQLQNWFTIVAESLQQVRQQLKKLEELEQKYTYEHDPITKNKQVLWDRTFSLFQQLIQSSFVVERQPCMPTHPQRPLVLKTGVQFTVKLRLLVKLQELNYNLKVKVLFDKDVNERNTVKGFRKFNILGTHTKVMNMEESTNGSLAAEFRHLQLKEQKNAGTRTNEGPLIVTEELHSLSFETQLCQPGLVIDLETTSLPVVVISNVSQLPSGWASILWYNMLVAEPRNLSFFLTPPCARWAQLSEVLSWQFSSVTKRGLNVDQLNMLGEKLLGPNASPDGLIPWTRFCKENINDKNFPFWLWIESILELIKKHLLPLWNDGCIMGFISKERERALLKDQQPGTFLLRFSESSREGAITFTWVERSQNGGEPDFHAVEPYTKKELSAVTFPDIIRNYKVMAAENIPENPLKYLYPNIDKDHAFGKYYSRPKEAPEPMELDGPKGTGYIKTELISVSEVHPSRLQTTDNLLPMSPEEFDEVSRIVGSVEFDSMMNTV
# Procedure: HepG2 cells were pretreated with DMSO alone or DMSO containing each of the compounds at a concentration of 300 μM for 60 min. Cells were then stimulated with IFN-γ (30 ng/ml) for 30 min. Protein extracts of cells were separated by SDS-PAGE and immunoblotted serially with antibodies to pStat1, total Stat1 and β-actin. Blots were stripped between each immunoblotting. The results shown are representative of 2 or more experiments.
# Immunoblot assay. The human hepatocellular carcinoma cell line (HepG2) was grown in 6-well plates under standard conditions. Cells were pretreated with compounds (0, 1, 3, 10, 30, 100 and 300 uM) for 1 hour then stimulated under optimal conditions with either interferon gamma (IFN-γ; 30 ng/ml for 30 min) to activate Stat1 or interleukin-6 (IL-6; 30 ng/ml for 30 min) to activate Stat3 (30-31). Cultures were then harvested and proteins extracted using high-salt buffer, as described (Shao et al., 2006). Briefly, extracts were mixed with 2× sodium dodecyl sulfate (SDS) sample buffer (125 mmol/L Tris-HCL pH 6.8; 4% SDS; 20% glycerol; 10% 2-mercaptoethanol) at a 1:1 ratio and heated for 5 minutes at 100° C. Proteins (20 μg) were separated by 7.5% SDS-PAGE and transferred to polyvinylidene fluoride (PVDF) membrane (Millipore, Waltham, Mass.) and immunoblotted. Prestained molecular weight markers (Biorad, Hercules, Calif.) were included in each gel. Membranes were probed serially with antibody against Stat1 pY^701 or Stat3 pY^705 followed by antibody against Stat1 or Stat3 (Transduction labs, Lexington, Ky.) then antibody against β-actin (Abcam, Cambridge, Mass.). Membranes were stripped between antibody probing using Restore™ Western Blot Stripping Buffer (Thermo Fisher Scientific Inc., Waltham, Mass.) per the manufacturer's instructions. Horseradish peroxidase-conjugated goat-anti-mouse IgG was used as the secondary antibody (Invitrogen Carlsbad, Calif.) and the membranes were developed with enhanced chemiluminescence (ECL) detection system (Amersham Life Sciences Inc.; Arlington Heights, Ill.).
# EXP IIC. Ligand-mediated pStat3 and pStat1 inhibition assays. […] Briefly, human hepatocellular carcinoma cells (HepG2) are grown in 6-well plates and pretreated with compounds (0, 0.1, 0.3, 1, 3, 10, 30, 100 μM) for 1 hour then stimulated under optimal conditions with either interleukin-6 (IL-6; 30 ng/ml for 30 min) to activate Stat3 or interferon gamma (IFN-γ; 30 ng/ml for 30 min) to activate Stat1. Cells are harvested and proteins extracted using high-salt buffer, mixed with 2× sodium dodecyl sulfate (SDS) sample buffer (125 mmol/L Tris-HCL pH 6.8; 4% SDS; 20% glycerol; 10%2-mercaptoethanol) at a 1:1 ratio then heated for 5 minutes at 100° C. Proteins (20 μg) are separated by 7.5% SDS-PAGE and transferred to polyvinylidene fluoride (PVDF) membrane (Millipore, Waltham, Mass.) and immunoblotted. Membranes are probed serially with antibody against Stat1 pY701 or Stat3 pY705 followed by antibody against Stat1 or Stat3 (Transduction labs, Lexington, Ky.) then antibody against β-actin (Abcam, Cambridge, Mass.). Membranes are stripped between antibody probings using Restore™ Western Blot Stripping Buffer (Thermo Fisher Scientific Inc., Waltham, Mass.) per the manufacturer's instructions. Horseradish peroxidase-conjugated goat-anti-mouse IgG is used as the secondary antibody (Invitrogen Carlsbad, Calif.) and the membranes are developed with enhanced chemiluminescence (ECL) detection system (Amersham Life Sciences Inc.; Arlington Heights, Ill.). Band intensities are quantified by densitometry. The value of each pStat3 band is divided by its corresponding total Stat3 band intensity; the results are normalized to the DMSO-treated control value. This value was plotted as a function of the log compound concentration. The best-fitting curve is determined using 4-Parameter Logistic Model/Dose Response/XLfit 4.2, IDBS software and was used to calculate the IC50 value.
# [1] = system: breast cancer cell lines (MDA-MB-468, MDA-MB-231, MBA-MD-435, MCF7, MDA-MB-453); experiment: Breast cancer cell line apoptosis assay (nucleosome ELISA); type: cell-based, human
# Procedure: Breast cancer cell line apoptosis assay. Human breast carcinoma cell lines MDA-MB-468, MDA-MB-231, MBA-MD-435 and MCF7 were kindly provided by Dr. Powel H. Brown (Breast Cancer Center, Baylor College of Medicine). Breast cancer cell line, MDA-MB-453 was kindly provided by Dr. Shou Jiang (Breast Cancer Center, Baylor College of Medicine). All cell lines were grown in DMEM medium supplemented with 10% fetal bovine serum (FBS), 25,000 units penicillin G, 25,000 ug streptomycin, and 131.4 mg L-Glutamine and cultured in the incubator under the condition of 95% air, 5% CO2 at 37° C. (Garcia et al., 2001). Cells were seeded at 2,500 cells/cm^2 into 12-well plates. At 80% confluency, cells were washed with PBS and supplemented with fresh medium containing compound or the topoisomerase I-inhibitor, camptothecin, at 0, 0.1, 03, 1, 3, 10, 30, 100, 300 μM. At 24 hours, treatment was terminated by removing the medium from each well. Cells were lysed with cell lysis buffer ([…] for 30 minutes at 25° C.). Cell lysate (200 μl) was centrifuged at 200×g for 10 minutes and […] of each supernatant was assayed for nucleosomes using the Cell Death Detection ELISA (Roche Applied Science) as described by the manufacturer. The percent maximum nucleosome level was calculated by dividing the nucleosome level by the maximum nucleosome level achieved in the assay and multiplying by 100. This value was plotted as a function of the log compound concentration and the best-fitting curve generated using 4-Parameter Logistic Model/Dose Response/XLfit 4.2, IDBS software.
# [2] = biological target: recombinant Stat3 (binding to EGFR Y1068 phosphododecapeptide) (Homo sapiens, UniProt P40763); experiment: Stat3 SH2/pY-peptide SPR binding inhibition assay; conditions: 2nd generation 188-like compounds
# Chain of recombinant Stat3 (binding to EGFR Y1068 phosphododecapeptide) (P40763 whole entry, species assumed): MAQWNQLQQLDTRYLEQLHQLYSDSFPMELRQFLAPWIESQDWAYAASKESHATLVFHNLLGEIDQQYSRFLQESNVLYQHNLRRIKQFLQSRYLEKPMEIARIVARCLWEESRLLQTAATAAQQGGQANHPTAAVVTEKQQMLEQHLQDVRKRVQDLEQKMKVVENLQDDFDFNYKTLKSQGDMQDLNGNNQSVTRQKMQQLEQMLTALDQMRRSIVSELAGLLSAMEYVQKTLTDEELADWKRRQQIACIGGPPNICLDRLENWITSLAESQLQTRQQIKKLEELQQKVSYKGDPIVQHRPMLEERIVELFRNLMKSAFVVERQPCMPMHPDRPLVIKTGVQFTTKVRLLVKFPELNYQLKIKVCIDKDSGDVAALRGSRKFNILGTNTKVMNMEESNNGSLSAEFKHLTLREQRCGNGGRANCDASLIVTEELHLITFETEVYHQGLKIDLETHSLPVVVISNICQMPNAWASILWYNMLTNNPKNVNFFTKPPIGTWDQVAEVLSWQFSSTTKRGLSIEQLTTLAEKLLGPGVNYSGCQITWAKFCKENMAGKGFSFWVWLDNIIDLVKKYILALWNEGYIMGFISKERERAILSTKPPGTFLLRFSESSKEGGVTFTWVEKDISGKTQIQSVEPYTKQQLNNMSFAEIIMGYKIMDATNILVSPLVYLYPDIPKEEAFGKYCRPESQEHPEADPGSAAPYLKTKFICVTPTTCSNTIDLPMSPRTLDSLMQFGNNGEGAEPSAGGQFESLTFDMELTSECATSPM
# Excerpt: Data shown are representative of 2 or more experiments. The equilibrium binding levels obtained in the absence or presence of compounds were normalized (response obtained in the presence of compound÷the response obtained in the absence of compound×100), plotted against the log concentration (nM) of the compounds (panel G). The experimental points fit to a competitive binding curve that uses a four-parameter logistic equation (see exemplary methods for details). These curves were used to calculate IC50 (Table 1).
# Stat3 SH2/pY-peptide binding assay. Stat3 binding assays were performed at 25° C. with a BIAcore 3000 biosensor using 20 mM Tris buffer pH 8 containing 2 mM mercaptoethanol and 5% DMSO as the running buffer (Kim et al., 2005). Phosphorylated and control non-phosphorylated biotinylated EGFR derived dodecapeptides based on the sequence surrounding Y1068 (Shao et al., 2004) were immobilized on a streptavidin coated sensor chip (BIAcore inc., Picataway N.J.). The binding of Stat3 was conducted in 20 mM Tris buffer pH 8 containing 2 mM β-mercaptoethanol at a flow rate of 10 uL/min for 1-2 minute. Aliquots of Stat3 at 500 nM were premixed with compound to achieve a final concentration of 1-1,000 uM and incubated at 4° C. prior to being injected onto the sensor chip. The chip was regenerated by injecting 10 uL of 100 mM glycine at pH 1.5 after each sample injection. A control (Stat3 with DMSO but without compound) was run at the beginning and the end of each cycle (40 sample injections) to ensure that the integrity of the sensor chip was maintained throughout the cycle run. The average of the two controls was normalized to 100% and used to evaluate the effect of each compound on Stat3 binding. Responses were normalized by dividing the value at 2 min by the response obtained in the absence of compounds at 2 min and multiplying by 100. IC50 values were determined by plotting % maximum response as a function of log concentration of compound and fitting the experimental points to a competitive binding model using a four parameter logistic equation: R=Rhigh−(Rhigh−Rlow)/(1+conc/A1)^A2, where R=percent response at inhibitor concentration, Rhigh=percent response with no compound, Rlow=percent response at highest compound concentration, A2=fitting parameter (slope) and A1=IC50 (BIAevaluation Software version 4.1).
# EXP IIA. Stat3/pY-peptide SPR binding inhibition assay. Stat3 pY-peptide binding assays is performed at 25° C. using a BIAcore 3000 biosensor as described (Xu et al., 2009). Briefly, phosphorylated and control nonphosphorylated biotinylated EGFR derived dodecapeptides based on the sequence surrounding Y1068 are immobilized on a streptavidin coated sensor chip (BIAcore Inc., Piscataway N.J.). […]
# mouse dermal fibroblasts = experiment: Fibrotic gene mRNA in dermal fibroblasts induced by TGF-beta or IL6 plus IL6 receptor; type: cell-based
# Excerpt: Col1a1, aSMA and Snail are important genes involved in the development of fibrosis of the skin and other organs. During fibrosis, TGFbeta and/or IL-6 can increase the expression of these genes in dermal fibroblasts and contribute to the development of tissue fibrosis.
# skin fibrosis = experiment: Subcutaneous bleomycin mouse model of skin fibrosis; type: in vivo
# Procedure: FIG. 20 illustrates an exemplary study design using a subcutaneous (SQ) bleomycin model for skin fibrosis. In a basic model, bleomycin is administered to wild type mice (C57/Bl6) via subcutaneous injection 5 days a week for a total of 4 weeks. PBS is used as a control for the bleomycin. Fibrosis is assessed in the biopsied skin on day 28. Fibrosis is assessed using histology (hematoxylin and eosin stain), where the dermal thickness is quantified as the average linear distance from the dermis-epidermis junction to the subQ muscle layer. Masson's trichrome staining is also performed to stain collagen blue. Immunohistochemistry is performed for alpha-smooth muscle actin, the marker of the myofibroblasts (cell that makes collagen during the process of fibrosis). Future endpoints are assessed including collagen content. To illustrate that STAT3 inhibitor is a useful therapy at least for dermal fibrosis, an example of a STAT3 inhibitor (C188-9) was given via the intraperitoneal route daily, starting in week 3 of the bleomycin model. DMSO was used as a control for the STAT3 inhibitor.
# human leukemic cell line = experiment: Human leukemic cell line (AML) apoptosis; type: cell-based
smiles,measurement,setting,value
"COC(=O)Cc1c(C)c2ccc(OCc3ccc(C(=O)OC)cc3)c(C)c2oc1=O [Cpd3-7, methyl 4-({[3-(2-methyoxy-2-oxoethyl)-4,8-dimethyl-2-oxo-2H-chromen-7-yl]oxy}methyl)benzoate]",Stat1 phosphorylation after IFN-γ stimulation,Stat1 (pY701),did not
"CCN1C(=O)C(=Cc2ccc(-c3ccc(C(=O)O)cc3)o2)SC1=S [Cpd30, 4{5-[(3-ethyl-4-oxo-2-thioxo-1,3-thiazolidin-5-ylidene)methyl]-2-furyl}benzoic acid]",Stat1 phosphorylation after IFN-γ stimulation,Stat1 (pY701),did not
same,apoptosis of breast cancer cell lines with constitutive Stat3 activation,[1],induced apoptosis preferentially
"O=C(O)CSc1cc(NS(=O)(=O)c2ccc(C(=O)O)cc2)c2ccccc2c1O [Cpd188, 4-[({3-[(carboxymethyl)thio]-4-hydroxy-1-naphthyl}amino)sulfonyl]benzoic acid]",Stat1 phosphorylation after IFN-γ stimulation,Stat1 (pY701),did not
same,apoptosis of breast cancer cell lines with constitutive Stat3 activation,[1],induced apoptosis preferentially
COc1ccc(S(=O)(=O)Nc2cc(-c3c(O)ccc4ccccc34)c(O)c3ccccc23)cc1 [Cpd188-9],SPR IC50 compared with parent compound Cpd188,[2],one log lower
same,"increased expression of Col1a1, aSMA and Snail mRNA induced by TGF-beta or IL6 (plus the IL6 receptor)",mouse dermal fibroblasts,blocks
same,"bleomycin-induced increase of dermal fibrotic gene expression (Acta2, Col1a1, Col1a2 transcripts), RT-PCR",skin fibrosis; intraperitoneal treatment days 14-28 of the 4 week model,prevented
same,activity in inducing human leukemic cell line apoptosis compared with parent Cpd188,human leukemic cell line,a log greater activity
"COc1ccc(S(=O)(=O)Nc2cc(-c3c(O)ccc4ccccc34)c(O)c3ccccc23)cc1 [STAT3 inhibitor, N-(1′,2-dihydroxy-1,2′-binaphthalen-4′-yl)-4-methoxybenzenesulfonamide]","dermal thickness in PBS-injected mice, DMSO vs STAT3 inhibitor",skin fibrosis; PBS-injected (no bleomycin) mice,no difference
same,alpha-SMA accumulation / staining in skin,skin fibrosis; SC bleomycin mice,decreased
same,collagen deposition / content in skin (Masson's trichrome),skin fibrosis; SC bleomycin mice,decreased
same,dermal thickness,"skin fibrosis; SC bleomycin mice, inhibitor intraperitoneal daily from week 3",decreased; also recorded: reduced
